Reference: ChEMBL document CHEMBL5329194, “Design, Synthesis, and Evaluation of 18F-Labeling CYP1B1 PET Tracer Based on 2-Phenylquinazolin” (Bioorg Med Chem Lett, 2023)
Blank lines part the entries; values can stand above or below the compound they belong to.

Columns and labels:
Cytochrome P450 1A1 = target: T1, Cytochrome P450 1A1 (Homo sapiens, UniProt P04798); experiment: Inhibition of CYP1A1 (unknown origin); type: ADME
T1 sequence (P04798 whole entry): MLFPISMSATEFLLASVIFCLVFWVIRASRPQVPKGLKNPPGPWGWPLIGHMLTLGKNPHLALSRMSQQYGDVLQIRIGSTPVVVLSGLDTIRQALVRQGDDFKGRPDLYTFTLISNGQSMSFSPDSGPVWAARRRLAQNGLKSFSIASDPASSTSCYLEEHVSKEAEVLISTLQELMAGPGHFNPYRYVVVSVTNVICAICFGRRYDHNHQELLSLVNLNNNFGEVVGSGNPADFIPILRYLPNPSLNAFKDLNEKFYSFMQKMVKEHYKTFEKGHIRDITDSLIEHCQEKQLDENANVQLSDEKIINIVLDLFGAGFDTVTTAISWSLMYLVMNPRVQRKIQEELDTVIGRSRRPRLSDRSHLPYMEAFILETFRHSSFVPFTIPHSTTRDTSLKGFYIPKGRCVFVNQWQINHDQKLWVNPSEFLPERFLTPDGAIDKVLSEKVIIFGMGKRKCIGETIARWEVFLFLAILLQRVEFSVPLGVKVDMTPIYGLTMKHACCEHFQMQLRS

[1] = Drug distribution in KM mouse kidney xenografted with human HCT-116 cells measured after 1 hr; type: ADME, tissue-based; conditions: read-out: Drug uptake
[2] = Drug distribution in KM mouse intestine xenografted with human HCT-116 cells measured after 1 hr; type: ADME, tissue-based; conditions: read-out: Drug uptake
[3] = Drug uptake in human HCT-15 cells measured after 1 hr; type: ADME, cell-based; conditions: hct-15, 1 h
[4] = Lipophilicity, logP of compound; type: physicochemical; conditions: octanol/water
[5] = Drug uptake in KM mouse gastrointestinal tract xenografted with human HCT-116 cells measured after 40 to 60 mins by PET imaging based analysis; type: ADME, tissue-based; conditions: time 40-60 min
[6] = Drug distribution in KM mouse liver xenografted with human HCT-116 cells measured after 1 hr block group; type: ADME, tissue-based; conditions: read-out: Drug uptake
[7] = Drug accumulation in blood of KM mouse measured after 2 hrs; type: ADME, tissue-based; conditions: read-out: Drug uptake
[8] = Retention time of the compound; type: physicochemical
[9] = Stability of compound in PBS assessed as compound remaining measure after 1 to 2 hrs; type: physicochemical; conditions: buffer; time 1-2 hrs
[10] = Drug distribution in KM mouse muscle xenografted with human HCT-116 cells measured after 1 hr; type: ADME, tissue-based, Muscle tissue; conditions: read-out: Drug uptake
[11] = Drug uptake in mouse liver measured after 10 mins; type: ADME, tissue-based; conditions: in vivo
[12] = Drug accumulation in brain of KM mouse measured after 10 mins; type: ADME, tissue-based; conditions: read-out: Drug uptake
[13] = Drug distribution in KM mouse spleen xenografted with human HCT-116 cells measured after 1 hr; type: ADME, tissue-based; conditions: read-out: Drug uptake
[14] = Drug distribution in KM mouse heart xenografted with human HCT-116 cells measured after 1 hr; type: ADME, tissue-based; conditions: read-out: Drug uptake
[15] = Drug accumulation in heart of KM mouse measured after 10 mins; type: ADME, tissue-based; conditions: in vivo
[16] = Drug distribution in KM mouse intestine xenografted with human HCT-116 cells measured after 1 hrs block group; type: ADME, tissue-based; conditions: read-out: Drug uptake
[17] = Drug distribution in KM mouse spleen xenografted with human HCT-116 cells measured after 1 hr block group; type: ADME, tissue-based; conditions: read-out: Drug uptake
[18] = Drug uptake in human HCT-116 cells measured after 30 mins; type: ADME, cell-based; conditions: hct-116, 0.5 h
[19] = Ratio of drug level in tumor to muscle in KM mouse xenografted with human HCT-116 cells measured after 1 hr block group; type: ADME, tissue-based
[20] = Drug distribution in KM mouse liver xenografted with human HCT-116 cells measured after 1 hr; type: ADME, tissue-based; conditions: read-out: Drug uptake
[21] = Drug distribution in KM mouse brain xenografted with human HCT-116 cells measured after 1 hr; type: ADME, tissue-based; conditions: read-out: Drug uptake
[22] = Drug distribution in KM mouse muscle xenografted with human HCT-116 cells measured after 1 hr block group; type: ADME, tissue-based, Muscle tissue; conditions: read-out: Drug uptake
[23] = Drug uptake in KM mouse liver xenografted with human HCT-116 cells measured after 40 to 60 mins by PET imaging based analysis; type: ADME, tissue-based; conditions: time 40-60 min
[24] = Ratio of drug level in tumor to muscle in KM mouse xenografted with human HCT-116 cells measured after 1 hr; type: ADME, tissue-based
[25] = Drug accumulation in small intestine of KM mouse measured after 2 hrs; type: ADME, tissue-based; conditions: read-out: Drug uptake
[26] = Drug distribution in KM mouse stomach xenografted with human HCT-116 cells measured after 1 hr; type: ADME, tissue-based; conditions: read-out: Drug uptake
[27] = Drug distribution in KM mouse stomach xenografted with human HCT-116 cells measured after 1 hr block group; type: ADME, tissue-based; conditions: read-out: Drug uptake
[28] = Drug distribution in KM mouse pancreas xenografted with human HCT-116 cells measured after 1 hr; type: ADME, tissue-based; conditions: read-out: Drug uptake
[29] = Stability of compound in mouse plasma assessed as compound remaining measured after 1 to 2 hrs; type: ADME, cell-free; conditions: time 1-2 hrs
[30] = Drug uptake in human HCT-116 cells at 10 nM measured after 30 min; type: ADME, cell-based; conditions: hct-116, 0.5 h, 0.01 µM
[31] = Drug uptake in human MCF7 cells measured after 1 hr; type: ADME, cell-based; conditions: mcf7, 1 h
[32] = Drug distribution in KM mouse bone xenografted with human HCT-116 cells measured after 1 hr; type: ADME, tissue-based, Bone element; conditions: read-out: Drug uptake
[33] = Drug distribution in KM mouse pancreas xenografted with human HCT-116 cells measured after 1 hr block group; type: ADME, tissue-based; conditions: read-out: Drug uptake
[34] = Drug uptake in mouse liver measured after 60 min; type: ADME, tissue-based; conditions: in vivo, 1 h
[35] = Drug accumulation in bone of KM mouse measured after 2 hrs; type: ADME, tissue-based, Bone element; conditions: read-out: Drug uptake
[36] = Drug distribution in KM mouse kidney xenografted with human HCT-116 cells measured after 1 hr block group; type: ADME, tissue-based; conditions: read-out: Drug uptake
[37] = Drug distribution in KM mouse blood xenografted with human HCT-116 cells measured after 1 hr block group; type: ADME, tissue-based; conditions: read-out: Drug uptake
[38] = Drug uptake in KM mouse intestine xenografted with human HCT-116 cells measured after 80 mins by PET imaging based analysis; type: ADME, tissue-based; conditions: 1.333 h
[39] = Drug accumulation in liver of KM mouse measured after 10 mins; type: ADME, tissue-based; conditions: read-out: Drug uptake
[40] = Drug distribution in KM mouse bone xenografted with human HCT-116 cells measured after 1 hr block group; type: ADME, tissue-based, Bone element; conditions: read-out: Drug uptake
[41] = Drug distribution in KM mouse lung xenografted with human HCT-116 cells measured after 1 hr; type: ADME, tissue-based; conditions: read-out: Drug uptake
[42] = Ratio of drug level in tumor to blood in KM mouse xenografted with human HCT-116 cells measured after 1 hr block group; type: ADME, tissue-based
[43] = Drug distribution in KM mouse blood xenografted with human HCT-116 cells measured after 1 hr; type: ADME, tissue-based; conditions: read-out: Drug uptake
[44] = Ratio of drug level in tumor to blood in KM mouse xenografted with human HCT-116 cells measured after 1 hr; type: ADME, tissue-based
[45] = Drug distribution in KM mouse lung xenografted with human HCT-116 cells measured after 1 hr block group; type: ADME, tissue-based; conditions: read-out: Drug uptake
[46] = Drug distribution in KM mouse heart xenografted with human HCT-116 cells measured after 1 hr block group; type: ADME, tissue-based; conditions: read-out: Drug uptake
[47] = Drug accumulation in intestine of KM mouse measured after 30 mins; type: ADME, tissue-based; conditions: read-out: Drug uptake
[48] = Drug distribution in KM mouse tumor xenografted with human HCT-116 cells measured after 1 hr block group; type: ADME, tissue-based, Neoplasm; conditions: read-out: Drug uptake
[49] = Drug distribution in KM mouse brain xenografted with human HCT-116 cells measured after 1 hr block group; type: ADME, tissue-based; conditions: read-out: Drug uptake
[50] = Drug distribution in KM mouse tumor xenografted with HCT-116 cells measured after 1 hr; type: ADME, tissue-based, Neoplasm; conditions: read-out: Drug uptake
[51] = Drug uptake in human HCT-15 cells measured after 30 mins in presence of 2-(4-bromophenyl)-4-(2-(2-(2-fluoroethoxy)ethoxy)ethoxy)quinazoline; type: ADME, cell-based; conditions: hct-15, 0.5 h
[52] = Drug uptake in human MCF7 cells measured after 30 mins in presence of 2-(4-bromophenyl)-4-(2-(2-(2-fluoroethoxy)ethoxy)ethoxy)quinazoline; type: ADME, cell-based; conditions: mcf7, 0.5 h

IC50 (Cytochrome P450 1A1): 64.2 nM
SMILES: O=c1cc(-c2ccccc2)oc2c1ccc1ccccc12 [ALPHA-NAPHTHOFLAVONE]

tissue uptake at 1 h [1]: 8.49 %ID/g
tissue uptake at 1 h [2]: 8.84 %ID/g
Drug uptake [3]: 25.61%
logP [4]: 3.88
Drug uptake [5]: Active
tissue uptake at 1 h [6]: 9.5 %ID/g
tissue uptake at 2 h [7]: 3.97 %ID/g
Retention_time [8]: 2.97 min
Stability [9]: > 90%
tissue uptake at 1 h [10]: 4.92 %ID/g
Drug uptake [11]: 83.7%
tissue uptake at 10 min [12]: 7.94 %ID/g
tissue uptake at 1 h [13]: 6.45 %ID/g
tissue uptake at 1 h [14]: 6.4 %ID/g
Drug uptake [15]: Active
tissue uptake at 1 h [16]: 7.1 %ID/g
tissue uptake at 1 h [17]: 5.62 %ID/g
Drug uptake [18]: 35.27%
Ratio [19]: 0.79
tissue uptake at 1 h [20]: 9.99 %ID/g
tissue uptake at 1 h [21]: 7.34 %ID/g
tissue uptake at 1 h [22]: 4.2 %ID/g
Drug uptake [23]: Active
Ratio [24]: 0.98
tissue uptake at 2 h [25]: 8.37 %ID/g
tissue uptake at 1 h [26]: 1.75 %ID/g
tissue uptake at 1 h [27]: 1.6 %ID/g
tissue uptake at 1 h [28]: 8.21 %ID/g
Stability [29]: > 90%
Drug uptake [30]: 23.64%
Drug uptake [31]: 25.26%
tissue uptake at 1 h [32]: 2.81 %ID/g
tissue uptake at 1 h [33]: 7.53 %ID/g
Drug uptake [34]: 37.63%
tissue uptake at 2 h [35]: 5.62 %ID/g
tissue uptake at 1 h [36]: 7.65 %ID/g
tissue uptake at 1 h [37]: 3.3 %ID/g
Drug uptake [38]: Active
tissue uptake at 10 min [39]: 10.2 %ID/g
tissue uptake at 1 h [40]: 2.44 %ID/g
tissue uptake at 1 h [41]: 5.66 %ID/g
Kp at 1 h [42]: 1.01
tissue uptake at 1 h [43]: 4.15 %ID/g
Kp at 1 h [44]: 1.16
tissue uptake at 1 h [45]: 5.42 %ID/g
tissue uptake at 1 h [46]: 5.23 %ID/g
tissue uptake at 0.5 h [47]: 10.8 %ID/g
tissue uptake at 1 h [48]: 3.31 %ID/g
tissue uptake at 1 h [49]: 6.56 %ID/g
tissue uptake at 1 h [50]: 4.76 %ID/g
Drug uptake [51]: 18.35%
Drug uptake [52]: 13.62%
SMILES: [18F]CCOCCOCCOc1nc(-c2ccc(Br)cc2)nc2ccccc12
